This assay relates to BDF1 mice, Adenocarcinoma 755 s.c., tumor weight T/C. The assay can be described thus: NCI In Vivo Anticancer Drug Screen. Data for tumor model Adenocarcinoma 755 (subcutaneous) in B6D2F1 (BDF1) mice. Particulars: endpoint: mean tumor weight, schedule: Q01DX011 (ip), higher = larger tumour. An outline of the steps: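 Values express treated (T) relative to vehicle-dosed control (C) animals, based on survival or tumour size measured after compound treatment of mice bearing a transplanted tumour.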

The mark [1] stands for this setting: dose: 12.5 mg/kg/injection, vehicle: saline.
Setting [2] is: dose: 25.0 mg/kg/injection, vehicle: saline.
Setting [3] is: dose: 28.0 mg/kg/injection, vehicle: carboxymethylcellulose (CMC).

Molecules are shown by their SMILES. “And” between values parts separate entries of the source, which are not always exact repeats. Equal entries are not always repeated.

On to `Cc1cccc(CSc2nc(N)nc3nc[nH]c23)n1`, for which the T/C was 17 % of control (dose: 3.9 mg/kg/injection, vehicle: methylcellulose (MC)); 20 % of control (dose: 7.8 mg/kg/injection, vehicle: methylcellulose (MC)); 5 % of control (dose: 15.6 mg/kg/injection, vehicle: methylcellulose (MC)); 1 % of control (dose: 31.25 mg/kg/injection, vehicle: methylcellulose (MC)).

Take `CC1CCC(n2cnc3c(=S)nc[nH]c32)O1` (centres undefined): the T/C by setting is: (dose: 1.8 mg/kg/injection, vehicle: carboxymethylcellulose (CMC)) 86 % of control; (dose: 3.7 mg/kg/injection, vehicle: carboxymethylcellulose (CMC)) 12 % of control; (dose: 7.5 mg/kg/injection, vehicle: carboxymethylcellulose (CMC)) 3 % of control; (dose: 15.0 mg/kg/injection, vehicle: carboxymethylcellulose (CMC)) 3 % of control.

With `CC(=O)Nc1c(Cl)c(Cl)c2c(c1Cl)Cc1cc(Br)ccc1-2`, the T/C (dose: 12.0 mg/kg/injection, vehicle: carboxymethylcellulose (CMC)) was 30 % of control and the T/C (dose: 25.0 mg/kg/injection, vehicle: carboxymethylcellulose (CMC)) was 41 % of control.

`CC1CN1P(=O)(Oc1ccccc1)N1CC1C` (centres undefined): the T/C under setting [1] was 89 % of control and 106 % of control; the T/C under setting [2] is 90 % of control and 78 % of control; the T/C (dose: 50.0 mg/kg/injection, vehicle: saline) is 42 % of control and 50 % of control.

As for `O=C1NC(=O)C(c2ccccc2)(c2ccc(Cl)cc2Cl)N1` (centres undefined), the T/C was 54 % of control under setting [3]; 65 % of control (dose: 28.0 mg/kg/injection, vehicle: saline); 79 % of control (dose: 56.0 mg/kg/injection, vehicle: carboxymethylcellulose (CMC)); 89 % of control (dose: 56.0 mg/kg/injection, vehicle: saline); 62 % of control (dose: 112.0 mg/kg/injection, vehicle: carboxymethylcellulose (CMC)); 64 % of control (dose: 112.0 mg/kg/injection, vehicle: saline). The T/C (dose: 224.0 mg/kg/injection, vehicle: saline) was 24 % of control.

For the molecule `O=C(O)C(CS(=O)(=O)O)Nc1ncnc2nc[nH]c12` (centres undefined), the T/C is 65 % of control (dose: 3.1 mg/kg/injection, vehicle: saline); 40 % of control (dose: 6.2 mg/kg/injection, vehicle: saline); 40 % of control and 43 % of control under setting [1]; 38 % of control (dose: 18.75 mg/kg/injection, vehicle: saline); 10 % of control under setting [2]; 12 % of control (dose: 28.12 mg/kg/injection, vehicle: saline). The T/C runs as follows: (dose: 45.0 mg/kg/injection, vehicle: saline) 4 % of control; (dose: 75.0 mg/kg/injection, vehicle: saline) 7 % of control; (dose: 225.0 mg/kg/injection, vehicle: saline) 7 % of control.

Regarding `CC(C)CCS(=O)(=O)OCCCCOS(=O)(=O)CCC(C)C`, the T/C was 67 % of control (dose: 75.0 mg/kg/injection, vehicle: methylcellulose (MC)); 34 % of control (dose: 100.0 mg/kg/injection, vehicle: methylcellulose (MC)); 89 % of control (dose: 150.0 mg/kg/injection, vehicle: methylcellulose (MC)); 5 % of control (dose: 200.0 mg/kg/injection, vehicle: methylcellulose (MC)); 60 % of control (dose: 300.0 mg/kg/injection, vehicle: methylcellulose (MC)); 56 % of control (dose: 400.0 mg/kg/injection, vehicle: carboxymethylcellulose (CMC)). The T/C reads like this: (dose: 400.0 mg/kg/injection, vehicle: methylcellulose (MC)) 20 % of control; (dose: 600.0 mg/kg/injection, vehicle: carboxymethylcellulose (CMC)) 33 % of control; (dose: 600.0 mg/kg/injection, vehicle: methylcellulose (MC)) 75 % of control.

Turning to `CS(=O)(=O)OCCC(=O)NCCCCCNC(=O)CCOS(C)(=O)=O`, the T/C (dose: 57.0 mg/kg/injection, vehicle: methylcellulose (MC)) was 64 % of control; the T/C (dose: 113.0 mg/kg/injection, vehicle: methylcellulose (MC)) is 53 % of control; the T/C (dose: 225.0 mg/kg/injection, vehicle: methylcellulose (MC)) is 30 % of control.

For `O=C1NC(=O)C2(CCCc3ccc(N(CCCl)CCCl)cc32)N1` (centres undefined), the T/C is, setting by setting: (dose: 3.5 mg/kg/injection, vehicle: carboxymethylcellulose (CMC)) 86 % of control; (dose: 3.5 mg/kg/injection, vehicle: other) 80 % of control; (dose: 7.0 mg/kg/injection, vehicle: carboxymethylcellulose (CMC)) 83 % of control; (dose: 7.0 mg/kg/injection, vehicle: other) 112 % of control; (dose: 14.0 mg/kg/injection, vehicle: carboxymethylcellulose (CMC)) 56 % of control; (dose: 14.0 mg/kg/injection, vehicle: other) 51 % of control. Also, the T/C reads like this: under setting [3], 30 % of control; (dose: 28.0 mg/kg/injection, vehicle: other) 56 % of control; (dose: 55.0 mg/kg/injection, vehicle: carboxymethylcellulose (CMC)) 2 % of control; (dose: 55.0 mg/kg/injection, vehicle: other) 13 % of control.

As for `CCCCCCCCSc1ncnc2c1ncn2CC`, the T/C was 58 % of control (dose: 150.0 mg/kg/injection, vehicle: saline) and 17 % of control (dose: 300.0 mg/kg/injection, vehicle: saline).

Turning to `[N-]=[N+]=[N-]`, the T/C by setting is: (dose: 1.06 mg/kg/injection, vehicle: carboxymethylcellulose (CMC)) 114 % of control; (dose: 1.55 mg/kg/injection, vehicle: carboxymethylcellulose (CMC)) 75 % of control; (dose: 2.13 mg/kg/injection, vehicle: carboxymethylcellulose (CMC)) 61 % of control; (dose: 3.1 mg/kg/injection, vehicle: carboxymethylcellulose (CMC)) 82 % of control; (dose: 4.25 mg/kg/injection, vehicle: carboxymethylcellulose (CMC)) 80 % of control; (dose: 6.2 mg/kg/injection, vehicle: carboxymethylcellulose (CMC)) 57 % of control. Moreover, the T/C by setting is: (dose: 8.5 mg/kg/injection, vehicle: carboxymethylcellulose (CMC)) 80 % of control; (dose: 12.4 mg/kg/injection, vehicle: carboxymethylcellulose (CMC)) 80 % of control.

For the molecule `CSc1nc(S(C)(=O)=O)ncc1C`, the T/C (dose: 15.0 mg/kg/injection, vehicle: methylcellulose (MC)) is 86 % of control; the T/C (dose: 31.0 mg/kg/injection, vehicle: methylcellulose (MC)) is 94 % of control; the T/C (dose: 62.0 mg/kg/injection, vehicle: methylcellulose (MC)) is 154 % of control.

With `Nc1nc([S-])c2nc[nH]c2n1.Nc1nc([S-])c2nc[nH]c2n1.Nc1nc([S-])c2nc[nH]c2n1.[Pt]`, the T/C runs as follows: (dose: 1.0 mg/kg/injection, vehicle: carboxymethylcellulose (CMC)) 44 % of control; (dose: 1.3 mg/kg/injection, vehicle: carboxymethylcellulose (CMC)) 65 % of control; (dose: 2.0 mg/kg/injection, vehicle: carboxymethylcellulose (CMC)) 19 % of control; (dose: 2.5 mg/kg/injection, vehicle: carboxymethylcellulose (CMC)) 12 % of control; (dose: 4.0 mg/kg/injection, vehicle: carboxymethylcellulose (CMC)) 2 % of control.

For the origin of these results see PubChem BioAssay AID180 (DTP/NCI, 2004).
